Article doi:10.1101/2025.06.05.658205v3, “AsCas12a Exhibits Intrinsic, DNA-Independent ATPase Activity” (biorxiv, 2025)

Target: T1, AsCas12a (Acidaminococcus sp. BV3L6, UniProt U2UMQ6)
T1 construct: gene cas12a; purified wild-type protein, no crRNA mentioned in assay
Assay: radiometric TLC ATPase assay ([…] release)
Format: biochemical
Settings: 200 µM cold ATP, 200 pM [γ-32P]ATP; 12 mM MgCl2, pH 7.5, 37 °C, 1 h; no DNA; labelled compound

T1 sequence (U2UMQ6 whole entry, looked up): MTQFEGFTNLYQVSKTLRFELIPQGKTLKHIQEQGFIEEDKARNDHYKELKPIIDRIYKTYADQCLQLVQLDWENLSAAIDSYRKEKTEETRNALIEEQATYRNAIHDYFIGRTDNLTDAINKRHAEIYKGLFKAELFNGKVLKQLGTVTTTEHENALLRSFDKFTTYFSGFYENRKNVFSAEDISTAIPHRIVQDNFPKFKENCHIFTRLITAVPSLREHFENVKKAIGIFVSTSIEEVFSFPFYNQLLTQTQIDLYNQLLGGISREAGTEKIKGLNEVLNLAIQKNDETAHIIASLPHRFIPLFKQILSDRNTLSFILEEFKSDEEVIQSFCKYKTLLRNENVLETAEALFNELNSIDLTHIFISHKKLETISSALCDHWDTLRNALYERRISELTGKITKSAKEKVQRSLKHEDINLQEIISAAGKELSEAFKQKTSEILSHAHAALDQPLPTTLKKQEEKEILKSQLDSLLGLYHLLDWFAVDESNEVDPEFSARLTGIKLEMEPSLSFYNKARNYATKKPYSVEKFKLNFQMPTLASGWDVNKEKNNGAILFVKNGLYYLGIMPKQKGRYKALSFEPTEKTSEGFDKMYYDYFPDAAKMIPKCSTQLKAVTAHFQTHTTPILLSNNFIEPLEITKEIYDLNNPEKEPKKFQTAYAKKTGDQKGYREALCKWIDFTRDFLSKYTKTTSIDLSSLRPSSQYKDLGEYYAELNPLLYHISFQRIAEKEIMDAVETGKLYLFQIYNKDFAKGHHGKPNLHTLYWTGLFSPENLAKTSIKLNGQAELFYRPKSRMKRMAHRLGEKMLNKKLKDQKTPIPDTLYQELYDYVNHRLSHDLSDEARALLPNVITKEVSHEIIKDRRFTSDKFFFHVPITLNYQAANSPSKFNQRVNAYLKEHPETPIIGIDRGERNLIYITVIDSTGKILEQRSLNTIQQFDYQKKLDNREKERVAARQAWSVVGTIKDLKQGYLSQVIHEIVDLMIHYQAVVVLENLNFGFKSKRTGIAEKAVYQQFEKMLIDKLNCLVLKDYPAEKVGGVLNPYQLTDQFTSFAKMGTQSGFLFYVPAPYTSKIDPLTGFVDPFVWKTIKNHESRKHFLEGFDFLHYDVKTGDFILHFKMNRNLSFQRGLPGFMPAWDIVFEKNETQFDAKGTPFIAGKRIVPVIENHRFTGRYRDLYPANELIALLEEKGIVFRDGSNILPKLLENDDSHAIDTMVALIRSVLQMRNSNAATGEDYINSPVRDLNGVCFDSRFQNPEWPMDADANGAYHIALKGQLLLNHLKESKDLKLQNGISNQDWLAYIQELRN

## Nc1ncnc2c1ncn2[C@@H]1O[C@H](COP(=O)(O)OP(=O)(O)OP(=O)(O)O)[C@@H](O)[C@H]1O [ATP]
  radiometric TLC ATPase assay (32Pi release): AsCas12a catalyzed ATP hydrolysis in a concentration and time-dependent manner
